Read-outs that look alike come from different tables or passages of the source.
Key:
JRFL = assay: Viral infectivity (pseudovirion entry) assay, primary strain JRFL; type: cell-based, HIV-1
Protocol: While HXB2 is a commonly used lab-adapted HIV-1 isolate, it is often more vulnerable to inhibition than primary clinical HIV-1 isolates. […] Bianchi 2005).
All studies were done using the HXB2 strain unless otherwise specified. Viral infectivity was measured essentially as previously described (Hamburger 2005) with several modifications. 8 μg/mL DEAE-Dextran was used as a fusion enhancer in all assays. Media was changed 22-26 h following infection. […] Fits were weighted by the absolute s.e.m. from quadruplicate points with the minimum allowable error set to 1%.

HXB2 strain = assay: Single-cycle viral infectivity (viral entry) assay, HXB2 strain
Protocol: All studies were done using the HXB2 strain unless otherwise specified. […] 8 μg/mL DEAE-Dextran was used as a fusion enhancer in all assays. Media was changed 22-26 h following infection. […] Fits were weighted by the absolute s.e.m. from quadruplicate points with the minimum allowable error set to 1%.

[1] = read-out: IC50 (nM) (HXB2), HXB2 pseudovirion entry, Table 4
[2] = JRFL pseudovirion entry, Table 4, read-out: IC50 (nM) (JRFL)
[3] = read-out: IC50, inhibition of viral entry, HXB2
[4] = read-out: IC50 (μM) (HXB2), HXB2 viral entry, Table 3
[5] = JRFL, read-out: IC50 against primary isolate JRFL

| Compound | IC50 (HXB2 strain; [1]) [nM] | IC50 (JRFL; [2]) [nM] | IC50 (HXB2 strain; [4]) [nM] | also measured |
| --- | --- | --- | --- | --- |
| Cc1ccc(-c2ccc3c(c2)C=C(C(=O)Nc2ccc(C[N+](C)(C)C4CCOCC4)cc2)CCC3)cc1 [TAK779, reference compound] |  |  |  | IC90 (JRFL; CCR5 co-receptor inhibitor, JRFL entry assay): 100 nM |
| GACDYPEWQWLCAAGK [PIE7-GK] | 389 | 15800 |  | inhibitory potency compared in words (HXB2 strain): slightly enhanced potency |
| GACDYPEWQWLCAAGKK [PIE7-GKK] | 382 | 19100 |  |  |
| HACDYPEWQWLCELGK [PIE15] | 66.7 | 1450 |  |  |
| HPCDYPEWQWLCELGK [PIE12] |  | 578 |  |  |
| HPCDYPEWQWLCKLGK [PIE13] | 41.3 | 1470 |  |  |
| HPCDYPEWQWLCRLGK [PIE14] | 33.1 | 1050 |  |  |
| KGACDYKEWQWLCAA [PIE8] |  |  |  | IC50 (HXB2 strain; [3]): 1680 nM |
| KGACDYPEWQWLCAA [PIE7] | 620 | 24000 | 620 | more potent than D10-p5 (HXB2 strain; HXB2, compared with D10-p5): ~15 fold; inhibitory activity in combination with Fuzeon (HXB2 strain; against viral entry, with Fuzeon): at least additive; IC50 (HXB2 strain; [3]): 620 nM; reduction in potency against JRFL (JRFL; JRFL compared with HXB2): ~40 fold; improvement of potency on addition of TAK779 (JRFL; JRFL, addition of 100 nM TAK779): more than 3 fold; IC50 (JRFL; [5]): 24400 nM |
| KGACDYPEWQWLCAAGK [K-PIE7-GK] |  | 14800 |  |  |
| KGACDYPEWRWLCAA [PIE2] |  |  |  | IC50 (HXB2 strain; [3]): 1320 nM |
| KGACDYPEWRWLCAAA [PIE2-AAA] |  |  | 1440 | inhibitory potency compared in words (HXB2 strain): nearly indistinguishable from the potency of PIE2 |
| KKGACDYPEWRWLCAA [2K-PIE2] |  |  | 2570 | less potent than PIE2 (HXB2 strain; HXB2, compared with PIE2): ~2 fold |
| KKGACELLGWEWAWLCAA [D10-p5, reference compound] |  |  | 9510 | inhibition of infection of cells (HXB2 strain; infectivity assay): inhibit infection of cells |
| KKGACESPEWRWLCAA [2K-PIE1] |  |  | 2220 |  |
| PEG-(KGACDYPEWQWLCAA)2 [PEG-(PIE7)2] | 1.9 |  | 1.9 | inhibitory potency compared in words (HXB2 strain): comparable to Fuzeon; improvement in IC50 over the corresponding monomer (HXB2 strain; HXB2, dimer vs monomer): ~325 fold; IC50 (HXB2 strain; read-out: IC50 of dimeric inhibitors, HXB2): 1.9 nM; IC50 (JRFL; [5]): 2300 nM |
| enfuvirtide [Fuzeon, reference compound] | 3.7 | 5 | 3.7 |  |

From patent US10512665B2, “Methods and compositions related to inhibition of viral entry” (University of Utah Research Foundation, priority 2007, dated 2019)
